Reference: US20130005802A1, “TREATMENT OF WNT/FRIZZLED-RELATED DISEASES” (priority 2009, published 2013)

Experiments:
fibroblasts = assay: Flow-based cytotoxicity assay (annexin V), fibroblasts; format: cell-based; details: 3 days, 0.2-20 μM
Protocol: (§1) After 3 days incubation, all cells were harvested with 0.05% trypsin/EDTA and spun down by centrifugation. Cells were labeled with biotin-conjugated Annexin V, and then stained with 7-AAD and Streptavidin-APC. Samples were acquired by FACSCalibur machine (BD Bioscience) and analyzed with CellQuest software. Cells were analyzed for expression of Annexin V as a marker of apoptosis.
(§2) Annexin V may be used as a marker for apoptosis and other forms of cell death. […] After 3 days of incubation, all cells were harvested with 0.05% trypsin/EDTA, labeled with biotin-conjugated Annexin V, and then stained with 7-AAD and streptavidin-APC. Samples were acquired by FACSCalibur, and percentages of annexin V-positive cells were analyzed and plotted as shown in FIG. 11. Cells were analyzed for expression of Annexin V as a marker of apoptosis.

β-catenin = assay: Immunohistochemistry of β-catenin in treated tumors; format: in vivo, NOD/SCID mice; details: 200 mg/kg, 2 or 3 weeks
Protocol: (§3) Paraffin-embedded specimens were cut into 4 μm-thick of sequential sections. After dewaxing in xylene and rehydrating stepwise in ethanol, sections were subjected to heat-induced antigen retrieval. Endogenous peroxidase activity was blocked with 3% H2O2, and non-specific binding was blocked with non-immune horse sera. Sections were then incubated with primary antibodies overnight at 4C. Anti-β-catenin (sc-65483, Santa Cruz Biotechnology, Inc., Santa Cruz, Calif.) and anti-Dvl-2 (sc-8026, Santa Cruz Biotechnology, Inc., Santa Cruz, Calif.) monoclonal antibodies were used at (1:50) dilution. After rinsing the sections were incubated with the biotinylated secondary antibody (1:200 dilution; Dakopatts, Copenhagen, Denmark) for 30 min at room temperature and then with the avidin-biotin peroxidase complex from the Vector Elite ABC kit (Vector Laboratories, Burlingame, Calif.) according to the manufacturer's instructions. Visualization was achieved using 3,3′-diaminobenzidine tetrahydrochloride and H2O2. Specimens were counterstained with hematoxylin.
(§4) NOD/SCID mice were implanted with colorectal cancer explants or cell lines. […] Tumors were excised and fixed with 10% neutralized, buffered formalin. Paraffin-embedded specimens were cut into 4 μm-thick of sequential sections. After dewaxing and rehydration, heat-induced antigen retrieval was performed. […]

[1] = tested on: peripheral blood mononuclear cells (PBMCs); format: cell-based; details: human, 3 days
Protocol: as §1, §2

Frizzled1-GFP = Frizzled1-GFP (Rattus norvegicus, UniProt Q08463); assay: Co-localization of internalized Frizzled1-GFP with β2-adrenergic receptor-RFP or Transferrin; format: cell-based
Protocol: To remove remaining surface bound Tf, the cells were exposed to unlabeled transferrin (10 mg/mL) for 2 min at room temperature. The cells were then fixed with 4% paraformaldehye, and imaged with a LSM510 confocal microscope (Zeiss).
Many classes of membrane receptors internalize in clathrin coated pits. In particular, β2-adrenergic receptors are prototypical for clathrin-dependent internalization of G protein-coupled receptors (Barak, L. S., et al. Mol Pharmacol 1997, 51, 177-184; Goodman, O. B., Jr., et al. Nature 1996, 383, 447-450, both are incorporated herein by reference in their entireties), and Transferrin is a well-documented standard for clathrin-mediated internalization in general (Mellman, I. Annu Rev Cell Dev Biol 1996, 12, 575-625, incorporated herein by reference). It was examined whether internalized Frizzled1-GFP co-localizes with either β2-adrenergic receptor-RFP or Transferrin in intracellular vesicles. FIG. 6A-6C show confocal images of unstimulated U2OS cells expressing both β2-adrenergic receptor-RFP (β2AR-RFP, FIG. 6A) and Frizzled1 receptors (Fzd1-GFP, FIG. 6B) prior to activation.
The merged image is presented in (FIG. 6L), wherein arrowheads indicate co-localized vesicles.

Dvl-2 = assay: Immunohistochemistry of Dvl-2 in treated tumors; format: in vivo, NOD/SCID mice; details: 200 mg/kg, 2 or 3 weeks
Protocol: as §3, §4

Frizzled1-GFP, sequence (Q08463 69-641): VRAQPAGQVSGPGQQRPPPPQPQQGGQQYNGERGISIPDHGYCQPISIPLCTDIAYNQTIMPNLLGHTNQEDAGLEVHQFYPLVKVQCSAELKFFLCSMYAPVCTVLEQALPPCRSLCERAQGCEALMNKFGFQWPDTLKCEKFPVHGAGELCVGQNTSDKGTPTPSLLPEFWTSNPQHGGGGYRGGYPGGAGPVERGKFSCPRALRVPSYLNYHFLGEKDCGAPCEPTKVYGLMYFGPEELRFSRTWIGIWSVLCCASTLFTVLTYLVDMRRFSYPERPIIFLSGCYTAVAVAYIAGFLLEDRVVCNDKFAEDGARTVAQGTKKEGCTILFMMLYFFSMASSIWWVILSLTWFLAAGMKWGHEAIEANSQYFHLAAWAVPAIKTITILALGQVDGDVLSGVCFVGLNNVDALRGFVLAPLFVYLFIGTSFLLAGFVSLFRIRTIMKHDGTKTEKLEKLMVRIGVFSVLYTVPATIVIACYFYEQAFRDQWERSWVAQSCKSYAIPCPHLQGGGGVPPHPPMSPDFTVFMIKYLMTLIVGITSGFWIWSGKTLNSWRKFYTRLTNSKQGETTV

O=C(Nc1ccc([N+](=O)[O-])cc1Cl)c1cc(Cl)ccc1O [niclosamide]
apoptotic cell death (annexin V) (fibroblasts): did not show a significant increase | cytoplasmic expression of β-catenin in tumors vs control (β-catenin): decreased levels | doses at which apoptosis was shown (annexin V) [1]: 10 to 20 µM | co-localization of Fzd1-GFP with β2AR-RFP (Frizzled1-GFP; […] niclosamide and 0.1 μM isoproterenol, 2 hr or 6 hr): multiple overlapping intracellular distributions | co-localization of internalized Transferrin with internalized Frizzled1 (Frizzled1-GFP; […] niclosamide, Transferrin 100 μg/mL, 2 hr): significant co-localization | cytoplasmic expression of Dvl-2 in tumors vs control (Dvl-2): decreased levels
